Source: publication PMC3275370 (The Journal of Cell Biology, 2012)

Legend:
[1] = test system: VSV-GFP (Indiana strain); format: cell-based, vesicular stomatitis virus
[2] = test system: A/WSN/1933; format: cell-based, influenza virus
[3] = test system: NS1; format: cell-based, influenza virus
[4] = test system: VSV M protein; format: cell-based, vesicular stomatitis virus
[5] = test system: HBECs; test: Measurements of cellular UMP, UDP and UTP levels by LC-MS/MS; format: cell-based, human; conditions: HBECs treated with compound
[6] = test system: MDCK cells
[7] = test system: mRNA export block; format: cell-based

Row | Structure (SMILES) | antiviral effect on VSV [1] | antiviral effect on influenza virus [2] | VSV replication [1] | reversal of NS1 inhibition of host gene expression (luciferase activity) [3] | inhibition of gene expression by M protein [4] | UMP and UDP pools [5] | UTP levels [5] | cytotoxicity [6] | NS1-mediated mRNA export block in absence of virus [7] | poly(A)+ RNA distribution in influenza virus-infected cells [7] | influenza virus replication [2]
1 | Cc1ccc(-c2cc(C(=O)O)c3cc(Cl)ccc3n2)cc1 [Compound 1-10, 6-chloro-2-p-tolylquinoline-4-carboxylic acid] | no antiviral effect | no antiviral effect | – | – | – | – | – | – | – | – | –
2 | O=C(O)c1cc(-c2ccc(Oc3ccccc3)cc2)nc2ccc(F)cc12 [Compound 1-14, 6-fluoro-2-(4-phenoxyphenyl)quinoline-4-carboxylic acid] | – | – | down-regulated | reverted | reverted | down-regulated to a lesser extent | reduced UTP levels | not cytotoxic | released | normal distribution of mRNA in the nucleus and in the cytoplasm | virus replication was inhibited
3 | CCOc1ccc(-c2cc(C(=O)O)c3cc(Cl)ccc3n2)cc1 [Compound 1, 6-chloro-2-(4-ethoxyphenyl)quinoline-4-carboxylic acid] | – | – | – | reverted the inhibition of host gene expression by NS1 | – | – | – | – | – | normal distribution of mRNA in the nucleus and in the cytoplasm | –
